According to PubChem BioAssay AID1259338 (Broad Institute, 2017):
Activity calls are given as the source filed them.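 Rule for the calls: active = compounds lowering the signal with a fitted AC50 at or below a set concentration limit; inconclusive = flat curve with 30 to 70% inhibition, or a poor fit; inactive = the rest.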

biological target: Caspase recruitment domain-containing protein 9 (Homo sapiens) + E3 ubiquitin-protein ligase TRIM62 (Homo sapiens) (UniProt Q9H257+Q9BVG3); assay: disruptors of CARD9-TRIM62 binding, dose response, cell lysate, HEK293FT lysates, Luminex bead readout (AID 1259338); conditions: Luminex bead PPI, MFI; for activity change, negative = inhibition: reference of the scale not given here
Sequence (Q9BVG3 whole entry, looked up, the tested form may be a part): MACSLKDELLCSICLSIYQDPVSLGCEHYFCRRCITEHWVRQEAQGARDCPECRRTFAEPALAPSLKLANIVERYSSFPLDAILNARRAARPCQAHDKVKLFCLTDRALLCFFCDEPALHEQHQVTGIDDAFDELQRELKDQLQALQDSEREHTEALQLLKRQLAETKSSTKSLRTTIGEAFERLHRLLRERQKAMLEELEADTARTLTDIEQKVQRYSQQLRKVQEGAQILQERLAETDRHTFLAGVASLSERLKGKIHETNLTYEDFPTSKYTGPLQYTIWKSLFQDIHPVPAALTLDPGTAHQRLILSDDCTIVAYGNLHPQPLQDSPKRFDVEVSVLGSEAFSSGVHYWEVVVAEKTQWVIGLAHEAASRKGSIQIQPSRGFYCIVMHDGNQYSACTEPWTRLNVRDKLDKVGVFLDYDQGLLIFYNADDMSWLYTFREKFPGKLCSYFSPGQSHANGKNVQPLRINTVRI
Sequence (Q9H257 whole entry, looked up, the tested form may be a part): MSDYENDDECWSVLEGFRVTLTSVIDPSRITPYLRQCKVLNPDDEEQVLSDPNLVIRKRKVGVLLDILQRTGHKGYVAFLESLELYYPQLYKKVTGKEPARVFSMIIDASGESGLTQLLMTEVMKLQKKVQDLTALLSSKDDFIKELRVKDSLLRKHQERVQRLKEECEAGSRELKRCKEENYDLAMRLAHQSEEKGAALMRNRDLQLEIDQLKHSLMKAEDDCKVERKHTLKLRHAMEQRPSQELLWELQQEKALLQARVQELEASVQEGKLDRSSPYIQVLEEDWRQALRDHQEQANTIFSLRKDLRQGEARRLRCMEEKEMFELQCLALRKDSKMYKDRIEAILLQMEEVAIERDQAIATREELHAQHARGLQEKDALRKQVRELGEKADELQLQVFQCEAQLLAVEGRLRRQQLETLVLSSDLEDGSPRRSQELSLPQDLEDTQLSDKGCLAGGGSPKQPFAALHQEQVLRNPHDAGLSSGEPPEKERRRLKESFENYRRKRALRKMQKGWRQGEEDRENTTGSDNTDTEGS

SMILES	AC50
O=C(Cc1ccc(S(=O)(=O)N2CCOCC2)s1)Nc1nc2c(s1)CCCC2	> 160 µM (inactive)
OCc1ccc(O)c2ncccc12	23.5 µM
C[C@H](CO)N1C[C@H](C)[C@@H](CN(C)CC2CCCCC2)OCCCC[C@H](C)Oc2ccc(NS(=O)(=O)c3ccc(F)cc3)cc2C1=O	73 µM
O=C(Nc1nccs1)c1cc(-c2ccccn2)nc2c(Cl)cccc12	> 160 µM (inactive)
Nc1c(C(=O)NCc2ccco2)c2nc3ccccc3nc2n1CCN1CCOCC1	> 160 µM (inactive)
NC(=O)C1(N2CCCCC2)CCN(c2ncc(NC(=O)c3cccs3)cc2C(=O)O)CC1	21.3 µM
COc1ccc(S(=O)(=O)N2CCOCC2)cc1NC(=O)c1cccc(-n2cccc2)c1	77.6 µM
Cc1ccc(Nc2nc(C(=O)Nc3ccc(Cl)cc3)nc3ccccc23)cc1	22.9 µM
CC(=O)c1ccc(NC(=O)c2noc3c2CCC3)cc1	> 160 µM (inactive)
COc1cccc(NC(=O)CN(C)C(=O)c2cc3c(s2)CCC3)c1	50.6 µM
O=C(Nc1nc(-c2ccccn2)cs1)c1cccc(-n2cnnn2)c1	77.9 µM
Cc1ccc(-c2nnc(-c3nc(Nc4nc5ccccc5s4)c4ccccc4n3)o2)cc1	42.1 µM
O=C(Nc1ccc(OCC(=O)N2CCOCC2)cc1)c1cncc(Br)c1	42.1 µM
COc1c(C(=O)O)csc1Br	29.6 µM
O=C(O)c1ccc2nc(-c3ccco3)c(-c3ccco3)nc2c1	34.7 µM
N#Cc1c(N)oc(-c2ccco2)c1-c1ccco1	> 160 µM (inactive)

SMILES	AC50
O=C(COC(=O)c1ccc(F)cc1F)Nc1ncccn1	38.8 µM
NC(=O)C1(N2CCCCC2)CCN(c2ncc(NC(=O)c3ccc(F)cc3)cc2C(=O)O)CC1	44.2 µM
O=C1c2ccccc2-c2nc3ccccc3nc21	> 160 µM (inactive)
O=C(Nc1ccc2oc(-c3ccncc3)nc2c1)c1ccc2c(c1)OCO2	41.8 µM
O=C(Nc1nc(-c2ccco2)c(-c2ccco2)s1)C1CCC1	54.7 µM
Cc1ccc(C(=O)Nc2cnc(N3CCC(C(N)=O)(N4CCCCC4)CC3)c(C(=O)O)c2)cc1	8.64 µM
Cc1ccccc1C(=O)Nc1cnc(N2CCC(C(N)=O)(N3CCCCC3)CC2)c(C(=O)O)c1	7.55 µM
COc1ccc(S(=O)(=O)c2ccccc2)cc1NS(=O)(=O)c1cccc(C(=O)O)c1	> 160 µM (inactive)
O=C(NCc1ccco1)c1c2c(nc3ccccc13)CCC2	> 160 µM (inactive)
Cc1ccc(-c2cc(C(=O)NCc3ccco3)c3ccccc3n2)o1	75 µM
Nc1ccc(-c2cccc(CN3CCCC3)c2)cc1	> 160 µM (inactive)
O=C(CN1CCOC1=O)N1CCC2(CCC(=O)N(CCCn3ccnc3)C2)CC1	> 160 µM (inactive)
C=CC(=O)N1CCCC2(CCN(CCN3CCCC3)C2=O)C1 (stereo not drawn)	1.53 µM
NC(=O)C1(N2CCCCC2)CCN(c2ncc(NC(=O)c3ccc(Cl)cc3)cc2C(=O)O)CC1	6.01 µM
O=C(NCc1cccnc1)c1ccccc1-c1nc(-c2ccccc2)no1	> 160 µM (inactive)

same assay, conditions: Luminex bead PPI, MFI, at 38 µM (top of the series)

SMILES	activity change, negative = inhibition
COCCn1c(C)cc(-c2csc(N)n2)c1C	inactive
Cc1ccc(C)n1Nc1nc(O)cs1	inactive

same assay, conditions: Luminex bead PPI, MFI, at 80 µM (top of the series)

SMILES	activity change, negative = inhibition
O=C(Cn1cncc1-c1ccc([N+](=O)[O-])cc1)Nc1ccccc1F	inactive
Cc1cnc(C)c(N2CCN(C(=O)[C@H]3CC[C@@H](N)C3)CC2)n1	inactive
O=C(NCc1ccco1)c1ccc(S(=O)(=O)N2CCOCC2)cc1	inactive
O=C(COC(=O)c1cc(-c2ccco2)nc2ccccc12)NCc1ccccc1	inactive
CCCc1oc(C(=O)O)cc1CN	inactive
O=C(CCc1nc(-c2ccccc2)no1)NCC1CNCCOC1 (stereo not drawn)	inactive
C[C@H](CO)N1C[C@H](C)[C@@H](CN(C)CC2CCCCC2)OCCCC[C@H](C)Oc2ccc(NS(=O)(=O)c3ccc(Cl)cc3)cc2C1=O	inactive
CCCCCn1c(NC(=O)c2ccco2)c(C(=O)OCC)c2nc3ccccc3nc21	inactive
O=C(NCc1ccco1)C1CCCN(S(=O)(=O)c2cccc3nonc23)C1 (stereo not drawn)	inactive
Clc1ccc2nc(CN3CCCCCC3)cn2c1	inactive
N#Cc1c(NC(=O)CSc2nc3ccccc3o2)sc2c1CCC2	inactive
Nc1cc2c(cc1-n1cccc1)OCCO2	inactive
O=C(COc1cccnc1[N+](=O)[O-])c1ccc(Cl)s1	inactive
O=C(COC(=O)c1cc(-c2ccco2)nc2ccccc12)NCc1ccc2c(c1)OCO2	inactive
N#Cc1c2ccc(OCC(=O)NCc3ccco3)cc2n2ccccc12	inactive
